Tests used:
Format in all cases: in vivo
Aegilops tauschii [1] = experiment: Soil sealing treatment pot experiment for controlling Aegilops tauschii (Example 1)
Description: (§1) Referring to an article of Colby, S. R. i.e., Calculation of the synergistic and antagonistic response of herbicide combinations. Weeds 1967, 15, pp. 20-22 (which is incorporated herein in its entirety by reference), the theoretical value E0 of a given mixture of three active ingredients may be predicted according to the following equation, then evaluating whether there is synergy.
(§2) [formula] • wherein: • E0 is the theoretical fresh weight survival rate for the mixture of pyroxasulfone, chlorotoluron and […]; • X is the measured fresh weight survival rate for pyroxasulfone used alone in the same dosage as that in the mixture; • Y is the measured fresh weight survival rate for chlorotoluron used alone in the same dosage as that in the mixture; • Z is the measured fresh weight survival rate for mesosulfuron-methyl used alone in the same dosage as that in the mixture. • E is the measured fresh weight survival rate for the mixture of pyroxasulfone, chlorotoluron and mesosulfuron-methyl. • E0-E value is calculated to evaluate the combined effect of pyroxasulfone, chlorotoluron and mesosulfuron-methyl on the selected weeds.
(§3) In this example, the herbicidal activity of a mixture of pyroxasulfone, chlorotoluron and mesosulfuron-methyl for soil sealing treatment to control Aegilops tauschii is investigated by a pot experiment method under the conditions of a glass greenhouse. This example is carried out in accordance with “NY/T 1155.4-2006 Guidelines for Indoor Bioassay Tests of Pesticides, Herbicides Part 4: Activity Determination Tests, Stem and Leaf Spray Method”.
(§4) • Pyroxasulfone: pyroxasulfone (850 g/Kg, WG) from Adama Agan LTD. • Chlorotoluron: chlorotoluron (90 wt %, WG) from Adama Agan LTD. • Mesosulfuron-methyl: Sigma (30 g/L, OD) from Bayer AG. • Test location: Greenhouse of Institute of Plant Protection, Shandong Academy of Agricultural Sciences • Cultivation of test materials: The test soil is formed by mixing the 20 cm layer loam on the ground surface and the culture medium in a ratio of 3:1 as cultivation soil.
(§5) The test weeds are cultivated in a glass greenhouse at a temperature of 15-30° C. and natural light. A certain amount of Aegilops tauschil seeds are sown in a plastic pot with a diameter of 9 cm, covering with 1-2 mm soil, and putting them in an enamel dish filled with water. The bottom infiltration method is used to water them, waiting for the water to seep to the soil surface, and then transferring to a glass greenhouse for cultivation. The agents are applied on the second day after sowing Aegilops tauschii seeds.
(§6) For each active ingredient, the multiple dilution method is used to obtain the other five lower dosages from the highest dosage. A certain amount of agent is measured by pipette or balance, adding it directly to the water, and then diluting it to the required dosage by the multiple dilution method.
(§7) Spraying treatment: ASS-4 automatic control spraying system with a fan-shaped nozzle is used indoors to spray agent, the running speed is adjusted based on nozzle pressure, flow rate, etc. to spray 50 mL of chemical solution on the actual spray area of 1.1 m^2 (equivalent to 30 liters per mu), arranging the plastic pots to be processed on the spraying table evenly, and spraying evenly. The spraying pressure is 0.35 MPa, and the flow rate of the fan-shaped nozzle is 800 mL/min, spraying in order from low dosage to high dosage. Each treatment is repeated 3 times. After spraying, let it dry for one day, placing it in a glass greenhouse, and watering it regularly to keep moist.
Application time and frequency: the experiment is conducted on the second day after sowing Aegilops tauschii seeds, and the soil is evenly sprayed. The application time is Mar. 10, 2020, with one application.
Weed investigation method and time: after applying the agent, the symptoms of weed damage (such as growth inhibition, chlorosis, deformity, etc.) are recorded in detail. […]

Lolium multiflorum Lamk = experiment: Soil sealing treatment pot experiment for controlling Lolium multiflorum Lamk (Example 2)
Aegilops tauschii [2] = experiment: Soil sealing treatment pot experiment for controlling Aegilops tauschii, more mixing ratios (Example 3)
Description: as §1, §2, §3, §4, §5, §6, §7
Weed investigation method and time: after applying the agent, the symptoms of weed damage (such as growth inhibition, chlorosis, deformity, etc.) are recorded in detail. After 35 days, the fresh weight of aerial part of the weeds in each treatment is weighed, and the measured fresh weight inhibition rate and the measured fresh weight survival rate for each treatment are calculated according to the following equations: […]

[3] = single active ingredient, summary of Table 2

With `Cn1nc(C(F)(F)F)c(CS(=O)(=O)C2=NOC(C)(C)C2)c1OC(F)F` [pyroxasulfone, 3-[(5-difluoromethoxy-1-methyl-3-trifluoromethylpyrazol-4-yl)methylsulfonyl]-4,5-dihydro-5,5-dimethyl-1,2-isoxazole] the “Measured fresh weight survival rate (%) - E” value (Aegilops tauschii [1]; 5.625 gai/ha, 35 days) was 101.3%, the “Measured fresh weight survival rate (%) - E” value (Aegilops tauschii [1]; 11.25 gai/ha, 35 days) was 97.4% and the “Measured fresh weight survival rate (%) - E” value (Aegilops tauschii [1]; 22.5 gai/ha, 35 days) was 98.7%. The “Measured fresh weight survival rate (%) - E” value (Aegilops tauschii [1]; 45 gai/ha, 35 days) was 79.22%, the “Measured fresh weight survival rate (%) - E” value (Aegilops tauschii [1]; 90 gai/ha, 35 days) was 75.32% and the “Measured fresh weight survival rate (%) - E” value (Aegilops tauschii [1]; 180 gai/ha, 35 days) was 54.55%. The inhibition at 5.625 g/ha (Aegilops tauschii [1]; Aegilops tauschii, soil, 840 h, 5.625 gai/ha, 35 days, read-out: Measured fresh weight inhibition rate (%)) was -1.3%, the inhibition at 11.25 g/ha (Aegilops tauschii [1]; Aegilops tauschii, soil, 840 h, 11.25 gai/ha, 35 days, read-out: Measured fresh weight inhibition rate (%)) was 2.6% and the inhibition at 22.5 g/ha (Aegilops tauschii [1]; Aegilops tauschii, soil, 840 h, 22.5 gai/ha, 35 days, read-out: Measured fresh weight inhibition rate (%)) was 1.3%. It also gave an inhibition at 45 g/ha (Aegilops tauschii [1]; Aegilops tauschii, soil, 840 h, 45 gai/ha, 35 days, read-out: Measured fresh weight inhibition rate (%)) of 20.8%, an inhibition at 90 g/ha (Aegilops tauschii [1]; Aegilops tauschii, soil, 840 h, 90 gai/ha, 35 days, read-out: Measured fresh weight inhibition rate (%)) of 24.7% and an inhibition at 180 g/ha (Aegilops tauschii [1]; Aegilops tauschii, soil, 840 h, 180 gai/ha, 35 days, read-out: Measured fresh weight inhibition rate (%)) of 45.5%. The “control effect on Aegilops tauschii” value (Aegilops tauschii [1]; [3]) was “certain effect”, the “Measured fresh weight survival rate (%) - E” value (Lolium multiflorum Lamk; 5.625 gai/ha, 35 days) was 69.23% and the “Measured fresh weight survival rate (%) - E” value (Lolium multiflorum Lamk; 11.25 gai/ha, 35 days) was 53.85%. The “Measured fresh weight survival rate (%) - E” value (Lolium multiflorum Lamk; 22.5 gai/ha, 35 days) was 51.65%, the “Measured fresh weight survival rate (%) - E” value (Lolium multiflorum Lamk; 45 gai/ha, 35 days) was 20.88% and the “Measured fresh weight survival rate (%) - E” value (Lolium multiflorum Lamk; 90 gai/ha, 35 days) was 0%. The “Measured fresh weight survival rate (%) - E” value (Lolium multiflorum Lamk; 180 gai/ha, 35 days) was 0%, the inhibition at 5.625 g/ha (Lolium multiflorum Lamk; Lolium multiflorum, soil, 840 h, 5.625 gai/ha, 35 days, read-out: Measured fresh weight inhibition rate (%)) was 30.8% and the inhibition at 11.25 g/ha (Lolium multiflorum Lamk; Lolium multiflorum, soil, 840 h, 11.25 gai/ha, 35 days, read-out: Measured fresh weight inhibition rate (%)) was 46.1%. For the same compound, the inhibition at 22.5 g/ha (Lolium multiflorum Lamk; Lolium multiflorum, soil, 840 h, 22.5 gai/ha, 35 days, read-out: Measured fresh weight inhibition rate (%)) was 48.4%, the inhibition at 45 g/ha (Lolium multiflorum Lamk; Lolium multiflorum, soil, 840 h, 45 gai/ha, 35 days, read-out: Measured fresh weight inhibition rate (%)) was 79.1% and the inhibition at 90 g/ha (Lolium multiflorum Lamk; Lolium multiflorum, soil, 840 h, 90 gai/ha, 35 days, read-out: Measured fresh weight inhibition rate (%)) was 100%. For the same compound, the inhibition at 180 g/ha (Lolium multiflorum Lamk; Lolium multiflorum, soil, 840 h, 180 gai/ha, 35 days, read-out: Measured fresh weight inhibition rate (%)) was 100%, the “effect on Lolium multiflorum Lamk” value (Lolium multiflorum Lamk; [3]) was “best effect” and the “Actual fresh weight survival rate (%) - E” value (Aegilops tauschii [2]; 45 gai/ha) was 75.0%. For the same compound, the “Actual fresh weight survival rate (%) - E” value (Aegilops tauschii [2]; 90 gai/ha) was 51.7%, the “Actual fresh weight survival rate (%) - E” value (Aegilops tauschii [2]; 180 gai/ha) was 34.5% and the inhibition at 45 g/ha (Aegilops tauschii [2]; Aegilops tauschii, soil, 45 gai/ha, read-out: Actual fresh weight inhibition rate %) was 25%. It also gave an inhibition at 90 g/ha (Aegilops tauschii [2]; Aegilops tauschii, soil, 90 gai/ha, read-out: Actual fresh weight inhibition rate %) of 48.3% and an inhibition at 180 g/ha (Aegilops tauschii [2]; Aegilops tauschii, soil, 180 gai/ha, read-out: Actual fresh weight inhibition rate %) of 65.5%.
